Legend:
[1] = test system: Oryza sativa, (L.) Tebonnet; experiment: Rice tolerance to post-transplant applications under flooded paddy conditions (Example 187), ORYSAT (Rice, Tebonnet); as to herbicidal effect rating ORYSAT: meaning of each grade not given here
Cyperus iria = experiment: Preemergence weed control under flooded paddy conditions, CYPIR (Rice Flatsedge); format: in vivo; details: preemergence, flooded paddy
[2] = test system: Echinochloa oryzoides (Ard.) Fritsch.; experiment: Preemergence weed control under flooded paddy conditions, ECHORC (Watergrass (Calif.)); format: in vivo; details: preemergence, flooded paddy
[3] = test system: Monochoria vaginalis, Presl.; experiment: Preemergence weed control under flooded paddy conditions, MOOVA (Monochoria); format: in vivo; details: preemergence, flooded paddy
[4] = test system: Cyperus serotinus, Rottb.; experiment: Preemergence weed control under flooded paddy conditions, CYPSE (Flatsedge); format: in vivo; details: preemergence
Sagittaria pygmaea, L. = experiment: Preemergence weed control under flooded paddy conditions, SAGPY (Arrowhead (Pygmaea)); format: in vivo; details: preemergence, flooded paddy
[5] = Rate 0.0320 kg/ha, rated 3-4 weeks after treatment
[6] = Rate 0.0620 kg/ha, rated 3-4 weeks after treatment
[7] = Rate 0.1250 kg/ha, rated 3-4 weeks after treatment
[8] = Rate 0.2500 kg/ha, rated 3-4 weeks after treatment
[9] = Rate 0.0313 kg/ha, rated three to four weeks after treatment
[10] = Rate 0.0625 kg/ha, rated three to four weeks after treatment
[11] = Rate 0.1250 kg/ha, rated three to four weeks after treatment
[12] = Rate 0.2500 kg/ha, rated three to four weeks after treatment
[13] = Rate 0.0320 kg/ha, rated three to four weeks after treatment
[14] = Rate 0.0620 kg/ha, rated three to four weeks after treatment

SMILES: CON(C)C(=O)/C=C/c1nsc2ccc(-n3c(=O)cc(C(F)(F)F)n(C)c3=O)cc12 [Example 565, 1,2-Benzisothiazole-3-acrylamide, 5-[3,6-dihydro-3-methyl-2,6-dioxo-4-(trifluoromethyl)-1(2H)-pyrimidinyl]-N-methoxy-N-methyl-, (E)-]
- herbicidal effect rating ORYSAT [1, 5]: 0.0
- herbicidal effect rating ORYSAT [1, 6]: 0.0
- herbicidal effect rating ORYSAT [1, 7]: 2.0
- herbicidal effect rating ORYSAT [1, 8]: 3.0
- herbicidal effect rating, CYPIR (Cyperus iria; [5]): 0.0
- herbicidal effect rating, CYPIR (Cyperus iria; [6]): 3.0
- herbicidal effect rating, CYPIR (Cyperus iria; [7]): 6.0
- herbicidal effect rating, CYPIR (Cyperus iria; [8]): 6.0
- herbicidal effect rating, ECHORC [2, 5]: 0.0
- herbicidal effect rating, ECHORC [2, 6]: 0.0
- herbicidal effect rating, ECHORC [2, 7]: 0.0
- herbicidal effect rating, ECHORC [2, 8]: 0.0
- herbicidal effect rating, MOOVA [3, 5]: 9.0
- herbicidal effect rating, MOOVA [3, 6]: 9.0
- herbicidal effect rating, MOOVA [3, 7]: 9.0
- herbicidal effect rating, MOOVA [3, 8]: 9.0
- herbicidal effect rating, CYPSE [4, 5]: 0.0
- herbicidal effect rating, CYPSE [4, 6]: 0.0
- herbicidal effect rating, CYPSE [4, 7]: 0.0
- herbicidal effect rating, CYPSE [4, 8]: 0.0
- herbicidal effect rating, SAGPY (Sagittaria pygmaea, L.; [5]): 0.0
- herbicidal effect rating, SAGPY (Sagittaria pygmaea, L.; [6]): 0.0
- herbicidal effect rating, SAGPY (Sagittaria pygmaea, L.; [7]): 0.0
- herbicidal effect rating, SAGPY (Sagittaria pygmaea, L.; [8]): 0.0

SMILES: C#CCn1c(C(F)(F)F)cc(=O)n(-c2ccc3snc(C)c3c2)c1=O [Example 217, 3-(3-Methyl-1,2-benzisothiazol-5-yl)-1-(2-propynyl)-6-(trifluoromethyl)-2,4(1H,3H)-pyrimidinedione]
- ORYSAT herbicidal effect rating [1, 9]: 2.0
- ORYSAT herbicidal effect rating [1, 10]: 2.0
- ORYSAT herbicidal effect rating [1, 11]: 3.0
- ORYSAT herbicidal effect rating [1, 12]: 4.0
- CYPIR herbicidal effect rating (Cyperus iria; [9]): 0.0
- CYPIR herbicidal effect rating (Cyperus iria; [10]): 0.0
- CYPIR herbicidal effect rating (Cyperus iria; [11]): 0.0
- CYPIR herbicidal effect rating (Cyperus iria; [12]): 0.0
- ECHORC herbicidal effect rating [2, 9]: 0.0
- ECHORC herbicidal effect rating [2, 10]: 0.0
- ECHORC herbicidal effect rating [2, 11]: 0.0
- ECHORC herbicidal effect rating [2, 12]: 0.0
- MOOVA herbicidal effect rating [3, 9]: 2.0
- MOOVA herbicidal effect rating [3, 10]: 4.0
- MOOVA herbicidal effect rating [3, 11]: 7.0
- MOOVA herbicidal effect rating [3, 12]: 7.0
- CYPSE herbicidal effect rating [4, 9]: 0.0
- CYPSE herbicidal effect rating [4, 10]: 0.0
- CYPSE herbicidal effect rating [4, 11]: 0.0
- CYPSE herbicidal effect rating [4, 12]: 0.0
- SAGPY herbicidal effect rating (Sagittaria pygmaea, L.; [9]): 0.0
- SAGPY herbicidal effect rating (Sagittaria pygmaea, L.; [10]): 0.0
- SAGPY herbicidal effect rating (Sagittaria pygmaea, L.; [11]): 0.0
- SAGPY herbicidal effect rating (Sagittaria pygmaea, L.; [12]): 0.0

SMILES: C=C(Cl)COC(=O)c1nsc2ccc(-n3c(=O)cc(C(F)(F)F)n(C)c3=O)cc12 [Example 386, 1,2-Benzisothiazole-3-carboxylic acid, 5-[3,6-dihydro-3-methyl-2,6-dioxo-4-(trifluoromethyl)-1(2H)-pyrimidinyl]-, 2-chloroallyl ester]
- herbicidal effect rating ORYSAT [1, 13]: 5.0
- herbicidal effect rating ORYSAT [1, 14]: 5.0
- herbicidal effect rating ORYSAT [1, 11]: 5.0
- herbicidal effect rating ORYSAT [1, 12]: 5.0
- herbicidal effect rating, CYPIR (Cyperus iria; [13]): 7.0
- herbicidal effect rating, CYPIR (Cyperus iria; [14]): 9.0
- herbicidal effect rating, CYPIR (Cyperus iria; [11]): 9.0
- herbicidal effect rating, CYPIR (Cyperus iria; [12]): 9.0
- herbicidal effect rating, ECHORC [2, 13]: 0.0
- herbicidal effect rating, ECHORC [2, 14]: 3.0
- herbicidal effect rating, ECHORC [2, 11]: 4.0
- herbicidal effect rating, ECHORC [2, 12]: 5.0
- herbicidal effect rating, MOOVA [3, 13]: 9.0
- herbicidal effect rating, MOOVA [3, 14]: 9.0
- herbicidal effect rating, MOOVA [3, 11]: 9.0
- herbicidal effect rating, MOOVA [3, 12]: 9.0
- herbicidal effect rating, CYPSE [4, 13]: 3.0
- herbicidal effect rating, CYPSE [4, 14]: 7.0
- herbicidal effect rating, CYPSE [4, 11]: 7.0
- herbicidal effect rating, CYPSE [4, 12]: 7.0
- herbicidal effect rating, SAGPY (Sagittaria pygmaea, L.; [13]): 4.0
- herbicidal effect rating, SAGPY (Sagittaria pygmaea, L.; [14]): 7.0
- herbicidal effect rating, SAGPY (Sagittaria pygmaea, L.; [11]): 9.0
- herbicidal effect rating, SAGPY (Sagittaria pygmaea, L.; [12]): 9.0

From patent EP0908457B1, “3-(1,2-benzisothiazol- and isoxazol-5-Y1)-2,4(1H,3H)-pyrimidinedione or thione and 3-(1,2-benzisothiazol- and isoxazol-5-y1)-4(3H)-pyrimidinone or thione herbicidal agents” (BASF AKTIENGESELLSCHAFT, priority 1997, dated 1999)
